The source of these data is ChEMBL document CHEMBL1201862, “PubChem BioAssay data set” (2004).

Active and inactive are the calls of the source. Where only a bound is given, the exact number is not on record here.

Experiment [1] can be described thus: HPDE-C7 pancreatic duct cell viability loss – fluorescence, HTS (AID 430). Format: functional, cell-based. The note with it: Homo sapiens.
Experiment [2] can be described thus: viability loss of HPDE-C7K cells – cell-based, fluorescence, HTS, primary screen (AID 431). Format: functional. As to conditions: Homo sapiens.
A short description of experiment [3]: viability of PTEN-deleted HCT116 cells – cell-based, HCT116 PTEN knockout, dose response (AID 1047).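 Note: HCT116 colon tumor cells with PTEN knocked out; cells exposed to compound for 60 hours before readout; potency for loss of cell viability measured by luminescence.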 The format is functional.
Experiment [4] can be described thus: viability of HCT116 lacking mutant beta-catenin – cell-based, human colon tumor, dose response (AID 1045).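 Note: HCT116 colon tumor cells with beta catenin knocked out; cells exposed to compound for 60 hours.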 The format is functional.
Experiment [5] in a line: Luminescence Cell-Based Dose Retest to Confirm Inhibitors of Cancer Stem Cells. [Related pubchem assays (depositor defined):AID2717, AID2721]. Format: functional. As to conditions: Homo sapiens.
Experiment [6] deals with T1, Bcl-2-related protein A1 (Mus musculus, UniProt Q07440).
T1 sequence (Q07440 whole entry): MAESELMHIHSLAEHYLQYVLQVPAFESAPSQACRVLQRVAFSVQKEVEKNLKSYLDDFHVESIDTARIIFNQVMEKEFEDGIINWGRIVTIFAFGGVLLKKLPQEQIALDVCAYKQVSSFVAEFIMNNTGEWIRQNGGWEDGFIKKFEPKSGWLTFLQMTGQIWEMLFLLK
Format: functional.

Experiment [7] has as its target T2, Ubiquitin-conjugating enzyme E2 N (Homo sapiens, UniProt P61088).
T2 sequence (P61088 whole entry): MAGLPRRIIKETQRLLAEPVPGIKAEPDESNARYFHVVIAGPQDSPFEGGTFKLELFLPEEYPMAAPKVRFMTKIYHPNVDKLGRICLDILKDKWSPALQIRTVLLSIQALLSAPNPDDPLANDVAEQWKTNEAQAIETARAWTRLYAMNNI
Format: functional.

The target of experiment [8] is T2, Ubiquitin-conjugating enzyme E2 N. The format is functional. This is another data set of the same source.
For experiment [9], the target named is T3, DNA repair protein RAD52 homolog (Homo sapiens, UniProt P43351).
T3 sequence (P43351 whole entry): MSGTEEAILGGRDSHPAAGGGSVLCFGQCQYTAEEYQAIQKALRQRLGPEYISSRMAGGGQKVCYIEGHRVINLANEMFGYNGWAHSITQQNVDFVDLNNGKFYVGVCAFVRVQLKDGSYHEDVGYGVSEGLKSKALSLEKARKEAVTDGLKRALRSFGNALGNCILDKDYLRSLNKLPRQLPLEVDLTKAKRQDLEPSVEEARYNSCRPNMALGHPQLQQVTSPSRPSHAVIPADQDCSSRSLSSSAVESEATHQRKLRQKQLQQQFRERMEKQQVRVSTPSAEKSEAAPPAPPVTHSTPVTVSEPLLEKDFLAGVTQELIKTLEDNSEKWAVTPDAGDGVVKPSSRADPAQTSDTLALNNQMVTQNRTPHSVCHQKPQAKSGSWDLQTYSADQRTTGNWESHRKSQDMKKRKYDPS
The format is functional, biochemical.

The target in experiment [10] is Mucolipin-3 (Homo sapiens, UniProt Q8TDD5). Briefly: Dose response cell-based high-throughput screening assay for agonists of the transient receptor potential channel ML3 (TRPML3). [Related pubchem assays: 1526, 1424, 1448 ]. Format: functional.
The target of experiment [11] is Ion channel NompC (Danio rerio, UniProt Q7T1G6). Briefly: Fluorescence counterscreen assay for TRPML3 agonists: dose response cell-based high-throughput screening assay to identify agonists of the transient receptor potential channel N1 (TRPN1). [Related pubchem assays: 1526, 1424, 1448 ]. The format is functional.
Experiment [12] is described as follows: A Cell Based Secondary Assay To Explore Cytotoxicity of Compounds that Sensitize Mycobacterium Tuberculosis to Beta-Lactam Antibiotics. Format: functional.
In experiment [13] the target is T4, NADPH oxidase 1 (Homo sapiens, UniProt Q9Y5S8).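 Note: Cell-based assay with luminescence read-out, IC50 derived from inhibitor dose-response curves; intracellular ROS from endogenous NOX1 in intact HT29 colon cancer cells; potency of inhibitors that lower the ROS luminescence signal.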
T4 sequence (Q9Y5S8 whole entry): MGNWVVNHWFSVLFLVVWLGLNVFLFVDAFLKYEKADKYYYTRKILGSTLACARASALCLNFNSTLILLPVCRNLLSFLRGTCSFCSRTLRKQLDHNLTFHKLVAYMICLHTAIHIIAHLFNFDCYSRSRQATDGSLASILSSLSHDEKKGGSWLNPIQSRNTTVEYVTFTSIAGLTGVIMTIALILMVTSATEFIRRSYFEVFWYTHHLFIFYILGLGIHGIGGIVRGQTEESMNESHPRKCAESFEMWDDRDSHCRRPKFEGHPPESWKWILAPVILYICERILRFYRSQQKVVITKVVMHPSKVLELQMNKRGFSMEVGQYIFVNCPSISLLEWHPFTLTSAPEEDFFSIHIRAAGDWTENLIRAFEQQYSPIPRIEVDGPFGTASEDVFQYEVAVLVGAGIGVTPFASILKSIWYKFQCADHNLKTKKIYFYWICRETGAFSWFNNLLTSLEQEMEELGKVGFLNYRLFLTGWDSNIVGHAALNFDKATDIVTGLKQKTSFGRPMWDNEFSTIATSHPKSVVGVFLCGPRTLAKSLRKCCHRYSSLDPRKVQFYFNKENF
Format: functional, cell-based.

The nature of experiment [14]: Trypanosoma cruzi growth suppression in host cells – NIH3T3 host cells, beta-gal luminescence, confirmation (AID 2044).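 Note: intracellular parasites grown in NIH/3T3 mouse fibroblasts as host cells; luminescent beta-galactosidase reporter signal from transgenic T. cruzi replicating inside host cells; inhibitors lower the luminescence signal.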 Format: functional, cell-based.
A short description of experiment [15]: NIH3T3 cell viability loss – ATP luminescence, mouse fibroblasts, counter-screen, dose response (AID 2010).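 Note: cells exposed to compound for about 90 hours before reading.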 Format: functional, cell-based.
The nature of experiment [16]: cells.
In experiment [17] the target is Epstein-Barr nuclear antigen 1 (Epstein-Barr virus (strain B95-8) (HHV-4) (Human herpesvirus 4), UniProt P03211). Briefly: inhibition of EBV nuclear antigen 1 DNA binding – biochemical, fluorescence polarization, 1536-well, dose response (AID 2381).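 Note: fluorescence polarization of a Cy5 DNA probe bound by EBNA-1 protein.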 Details: species or system human gammaherpesvirus 4.
Experiment [18] addresses Lytic switch protein BZLF1 (Epstein-Barr virus (strain B95-8) (HHV-4) (Human herpesvirus 4), UniProt P03206). The experiment can be described thus: inhibition of BZLF1 ZTA DNA binding – biochemical, fluorescence polarization, Epstein-Barr virus, 1536-well, counter-screen for EBNA-1 inhibitor project, dose response (AID 2377).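 Note: fluorescence polarization of Cy5-labelled ZRE DNA probe bound by purified Zta.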 Details: species or system human gammaherpesvirus 4.

Experiment [19] has as its target Long-chain-fatty-acid--AMP ligase FadD28 (Mycobacterium tuberculosis, UniProt P9WQ59). The experiment can be described thus: Fluorescence polarization aasay to screen for inhibitors that compete for the binding of FadD28 to a bisubstrate Measured in Biochemical System Using Plate Reader - 2147-01_Inhibitor_Dose_CherryPick_Activity. The format is functional, Mycobacterium tuberculosis H37Rv.

Experiment [20] addresses T5, Estrogen receptor (Homo sapiens, UniProt P03372).
T5 sequence (P03372 whole entry): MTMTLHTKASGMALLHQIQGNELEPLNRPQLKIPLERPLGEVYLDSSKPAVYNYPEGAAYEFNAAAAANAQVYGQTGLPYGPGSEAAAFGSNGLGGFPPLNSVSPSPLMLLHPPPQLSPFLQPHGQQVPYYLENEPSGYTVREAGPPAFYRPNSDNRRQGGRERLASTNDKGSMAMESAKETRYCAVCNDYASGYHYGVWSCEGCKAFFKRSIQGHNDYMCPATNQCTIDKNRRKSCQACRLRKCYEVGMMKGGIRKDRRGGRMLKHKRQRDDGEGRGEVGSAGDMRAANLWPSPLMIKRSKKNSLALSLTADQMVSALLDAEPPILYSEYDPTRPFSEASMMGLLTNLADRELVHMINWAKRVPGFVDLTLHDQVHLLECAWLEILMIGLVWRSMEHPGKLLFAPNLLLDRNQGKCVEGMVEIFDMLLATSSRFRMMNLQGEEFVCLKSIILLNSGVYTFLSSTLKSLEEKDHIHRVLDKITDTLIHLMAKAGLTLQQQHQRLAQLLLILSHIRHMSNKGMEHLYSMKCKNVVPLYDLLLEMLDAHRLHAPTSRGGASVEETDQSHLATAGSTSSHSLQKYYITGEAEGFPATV

The nature of experiment [21]: luciferase reporter signal suppression in cells – H4 neuroglioma cells, luminescence, dose response (AID 1990). Format: functional, cell-based.
Experiment [22] in a line: Luminescence Cell-Based Dose Response HTS to Identify Inhibitors of 5'UTR Stem-Loop Driven Prion Protein mRNA Translation in H4 Neuroglioblastoma Cells. [Related pubchem assays: 1827 (Project Summary), 1813 (Primary HTS)]. The format is functional.
The nature of experiment [23]: alpha-synuclein stem-loop luciferase translation blockers – H4 neuroglioma cells, luminescence, confirmation (AID 1988). The format is functional, cell-based.
The target of experiment [24] is T6, Mannose-6-phosphate isomerase (Homo sapiens, UniProt P34949).
T6 sequence (P34949 whole entry): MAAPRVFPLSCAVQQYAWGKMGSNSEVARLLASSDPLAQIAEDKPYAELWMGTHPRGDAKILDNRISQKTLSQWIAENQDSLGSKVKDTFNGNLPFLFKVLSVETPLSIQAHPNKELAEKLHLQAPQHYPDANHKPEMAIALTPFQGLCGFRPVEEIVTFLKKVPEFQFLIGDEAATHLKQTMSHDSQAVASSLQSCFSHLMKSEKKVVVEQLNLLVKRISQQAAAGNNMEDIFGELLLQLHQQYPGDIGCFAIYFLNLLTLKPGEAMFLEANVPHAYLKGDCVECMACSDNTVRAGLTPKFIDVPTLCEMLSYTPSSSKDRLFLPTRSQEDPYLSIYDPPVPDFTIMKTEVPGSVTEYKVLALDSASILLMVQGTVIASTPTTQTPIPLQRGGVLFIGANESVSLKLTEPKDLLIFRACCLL
The experiment can be described thus: MPI enzyme activity inhibition – biochemical, fluorescence intensity, coupled assay, primary screen (AID 1209).

The target in experiment [25] is T6, Mannose-6-phosphate isomerase. Briefly: MPI inhibition at elevated mannose 6-phosphate – biochemical, fluorescence intensity, high mannose 6-phosphate, primary screen (AID 1220).
Experiment [26] has as its target Voltage-gated inwardly rectifying potassium channel KCNH2 (Homo sapiens, UniProt Q12809). The experiment can be described thus: concentration-dependent hERG rescue from blockers – cell-based, thallium flux, dose response (AID 2121). The format is ADME.

Sequence of Mucolipin-3 (Q8TDD5 whole entry): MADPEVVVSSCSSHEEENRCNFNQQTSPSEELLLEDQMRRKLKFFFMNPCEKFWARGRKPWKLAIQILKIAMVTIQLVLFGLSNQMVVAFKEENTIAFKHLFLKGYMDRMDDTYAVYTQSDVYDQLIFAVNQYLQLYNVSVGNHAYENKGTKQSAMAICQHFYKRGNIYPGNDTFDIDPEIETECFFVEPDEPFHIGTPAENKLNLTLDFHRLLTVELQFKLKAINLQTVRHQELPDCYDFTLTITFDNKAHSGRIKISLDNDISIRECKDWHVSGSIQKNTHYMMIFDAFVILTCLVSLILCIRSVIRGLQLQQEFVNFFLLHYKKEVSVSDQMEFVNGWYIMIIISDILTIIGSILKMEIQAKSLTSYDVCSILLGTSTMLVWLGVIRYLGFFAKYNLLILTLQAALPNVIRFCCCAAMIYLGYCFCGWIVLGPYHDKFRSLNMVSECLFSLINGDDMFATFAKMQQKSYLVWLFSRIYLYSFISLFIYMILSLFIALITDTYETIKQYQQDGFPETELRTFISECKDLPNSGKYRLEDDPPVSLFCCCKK
Sequence of Epstein-Barr nuclear antigen 1 (P03211 whole entry): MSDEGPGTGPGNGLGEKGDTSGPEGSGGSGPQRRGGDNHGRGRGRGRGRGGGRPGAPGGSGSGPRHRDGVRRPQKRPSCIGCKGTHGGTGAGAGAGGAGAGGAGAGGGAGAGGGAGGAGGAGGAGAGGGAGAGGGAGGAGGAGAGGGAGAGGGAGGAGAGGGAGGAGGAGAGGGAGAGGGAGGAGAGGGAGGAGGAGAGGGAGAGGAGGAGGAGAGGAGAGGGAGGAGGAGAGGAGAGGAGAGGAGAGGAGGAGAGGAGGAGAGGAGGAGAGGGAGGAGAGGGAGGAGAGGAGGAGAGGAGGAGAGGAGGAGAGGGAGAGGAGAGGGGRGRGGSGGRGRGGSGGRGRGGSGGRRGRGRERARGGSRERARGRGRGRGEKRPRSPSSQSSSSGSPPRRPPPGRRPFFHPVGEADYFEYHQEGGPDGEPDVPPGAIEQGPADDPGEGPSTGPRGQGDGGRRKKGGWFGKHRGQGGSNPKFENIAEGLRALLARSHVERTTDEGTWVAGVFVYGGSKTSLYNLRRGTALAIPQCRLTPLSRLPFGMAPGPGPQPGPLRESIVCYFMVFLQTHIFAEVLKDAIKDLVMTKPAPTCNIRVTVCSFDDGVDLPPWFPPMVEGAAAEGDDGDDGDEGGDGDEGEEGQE
Sequence of Lytic switch protein BZLF1 (P03206 whole entry): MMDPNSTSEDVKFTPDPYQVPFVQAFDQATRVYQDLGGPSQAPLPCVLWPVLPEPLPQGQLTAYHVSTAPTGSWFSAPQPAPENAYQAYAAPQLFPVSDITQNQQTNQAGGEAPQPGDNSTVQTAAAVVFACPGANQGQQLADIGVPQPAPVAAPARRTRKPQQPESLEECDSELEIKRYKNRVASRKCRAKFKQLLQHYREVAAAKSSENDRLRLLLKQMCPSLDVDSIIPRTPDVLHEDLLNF
Sequence of Ion channel NompC (Q7T1G6 whole entry): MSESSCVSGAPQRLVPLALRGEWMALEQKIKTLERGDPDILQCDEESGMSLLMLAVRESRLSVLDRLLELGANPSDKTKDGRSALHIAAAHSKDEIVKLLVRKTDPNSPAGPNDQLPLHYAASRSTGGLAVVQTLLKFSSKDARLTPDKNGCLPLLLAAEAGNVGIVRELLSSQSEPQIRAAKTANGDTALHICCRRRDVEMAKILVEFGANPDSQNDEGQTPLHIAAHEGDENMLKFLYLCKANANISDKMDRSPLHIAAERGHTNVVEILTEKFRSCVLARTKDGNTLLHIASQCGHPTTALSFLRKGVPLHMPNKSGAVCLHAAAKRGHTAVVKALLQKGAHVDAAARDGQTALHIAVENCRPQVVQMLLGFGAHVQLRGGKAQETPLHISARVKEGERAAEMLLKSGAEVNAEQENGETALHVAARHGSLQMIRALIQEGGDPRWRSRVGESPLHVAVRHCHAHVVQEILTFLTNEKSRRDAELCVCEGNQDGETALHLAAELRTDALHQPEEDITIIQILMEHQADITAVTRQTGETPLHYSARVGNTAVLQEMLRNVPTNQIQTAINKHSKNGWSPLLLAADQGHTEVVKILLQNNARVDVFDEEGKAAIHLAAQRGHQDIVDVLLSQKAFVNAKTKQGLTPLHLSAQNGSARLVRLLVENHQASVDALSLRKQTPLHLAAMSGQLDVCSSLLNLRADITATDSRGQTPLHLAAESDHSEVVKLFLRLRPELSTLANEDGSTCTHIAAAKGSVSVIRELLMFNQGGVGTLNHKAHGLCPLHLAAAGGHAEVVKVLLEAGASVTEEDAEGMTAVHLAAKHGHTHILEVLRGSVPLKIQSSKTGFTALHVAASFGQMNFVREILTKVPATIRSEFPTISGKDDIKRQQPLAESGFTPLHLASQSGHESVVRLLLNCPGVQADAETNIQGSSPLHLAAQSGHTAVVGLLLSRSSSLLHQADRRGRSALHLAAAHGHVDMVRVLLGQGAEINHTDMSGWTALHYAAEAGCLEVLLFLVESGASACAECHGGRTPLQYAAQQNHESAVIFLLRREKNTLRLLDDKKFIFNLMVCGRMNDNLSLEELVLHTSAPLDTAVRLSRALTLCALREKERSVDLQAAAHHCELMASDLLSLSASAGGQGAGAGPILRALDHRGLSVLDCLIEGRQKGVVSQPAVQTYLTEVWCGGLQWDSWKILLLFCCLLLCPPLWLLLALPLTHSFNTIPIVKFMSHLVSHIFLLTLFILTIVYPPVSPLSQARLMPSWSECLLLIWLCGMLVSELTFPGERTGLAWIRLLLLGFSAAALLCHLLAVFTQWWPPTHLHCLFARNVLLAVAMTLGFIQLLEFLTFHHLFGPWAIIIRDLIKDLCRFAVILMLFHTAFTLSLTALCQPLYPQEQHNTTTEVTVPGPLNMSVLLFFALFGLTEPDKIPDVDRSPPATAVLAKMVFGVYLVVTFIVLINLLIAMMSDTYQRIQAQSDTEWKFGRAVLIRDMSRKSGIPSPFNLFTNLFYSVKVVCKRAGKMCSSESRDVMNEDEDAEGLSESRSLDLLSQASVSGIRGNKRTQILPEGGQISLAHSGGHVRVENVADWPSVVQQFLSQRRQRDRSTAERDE
Sequence of Voltage-gated inwardly rectifying potassium channel KCNH2 (Q12809 whole entry): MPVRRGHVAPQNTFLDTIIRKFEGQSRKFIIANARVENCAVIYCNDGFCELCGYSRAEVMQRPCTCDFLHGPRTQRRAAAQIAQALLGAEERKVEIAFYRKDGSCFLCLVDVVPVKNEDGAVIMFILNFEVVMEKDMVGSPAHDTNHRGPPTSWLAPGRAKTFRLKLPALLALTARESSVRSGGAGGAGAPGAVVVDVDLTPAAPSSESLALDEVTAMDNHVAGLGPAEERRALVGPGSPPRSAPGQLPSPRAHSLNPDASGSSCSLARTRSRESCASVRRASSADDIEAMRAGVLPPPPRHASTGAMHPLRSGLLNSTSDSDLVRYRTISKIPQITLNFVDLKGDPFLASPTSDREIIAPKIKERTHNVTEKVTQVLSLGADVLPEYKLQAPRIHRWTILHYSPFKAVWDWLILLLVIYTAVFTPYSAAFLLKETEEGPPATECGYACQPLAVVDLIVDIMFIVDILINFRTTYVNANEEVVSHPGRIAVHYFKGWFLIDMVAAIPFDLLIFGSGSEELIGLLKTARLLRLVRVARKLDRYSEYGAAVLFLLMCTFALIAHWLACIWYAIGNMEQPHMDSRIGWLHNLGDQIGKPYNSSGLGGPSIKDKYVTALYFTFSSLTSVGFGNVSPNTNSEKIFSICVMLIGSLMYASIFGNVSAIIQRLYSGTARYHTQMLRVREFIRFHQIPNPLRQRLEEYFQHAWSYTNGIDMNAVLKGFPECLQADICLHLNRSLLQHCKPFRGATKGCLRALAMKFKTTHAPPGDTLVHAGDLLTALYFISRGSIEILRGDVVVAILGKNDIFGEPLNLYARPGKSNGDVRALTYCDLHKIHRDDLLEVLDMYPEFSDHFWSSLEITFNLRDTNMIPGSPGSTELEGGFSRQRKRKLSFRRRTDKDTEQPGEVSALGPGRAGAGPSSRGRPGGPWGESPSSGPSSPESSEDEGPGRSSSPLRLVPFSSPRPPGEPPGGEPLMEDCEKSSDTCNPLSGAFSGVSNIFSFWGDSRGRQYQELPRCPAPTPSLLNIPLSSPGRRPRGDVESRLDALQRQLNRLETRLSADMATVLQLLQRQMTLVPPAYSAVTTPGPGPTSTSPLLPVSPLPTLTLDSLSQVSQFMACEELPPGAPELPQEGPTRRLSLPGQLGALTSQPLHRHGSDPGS
Sequence of Long-chain-fatty-acid--AMP ligase FadD28 (P9WQ59 whole entry): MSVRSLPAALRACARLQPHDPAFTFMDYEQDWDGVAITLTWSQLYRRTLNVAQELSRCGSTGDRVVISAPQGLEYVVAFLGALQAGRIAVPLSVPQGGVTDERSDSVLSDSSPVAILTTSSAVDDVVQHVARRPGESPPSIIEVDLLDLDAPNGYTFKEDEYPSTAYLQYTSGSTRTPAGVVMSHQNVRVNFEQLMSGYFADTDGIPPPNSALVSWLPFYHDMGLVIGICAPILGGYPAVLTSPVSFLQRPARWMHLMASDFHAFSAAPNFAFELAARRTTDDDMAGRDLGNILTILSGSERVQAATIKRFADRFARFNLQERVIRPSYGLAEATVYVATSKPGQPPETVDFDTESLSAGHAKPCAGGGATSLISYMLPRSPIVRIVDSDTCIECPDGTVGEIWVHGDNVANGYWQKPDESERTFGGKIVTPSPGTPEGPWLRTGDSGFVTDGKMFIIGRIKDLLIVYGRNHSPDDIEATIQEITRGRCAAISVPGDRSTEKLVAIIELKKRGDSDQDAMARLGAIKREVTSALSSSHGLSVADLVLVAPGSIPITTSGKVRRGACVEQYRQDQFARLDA

`OCCN1CCN(CCCN2c3ccccc3Sc3ccc(C(F)(F)F)cc32)CC1`: the concentration for a half-maximal effect (EC50) is 13.2 µM (active) in experiment [1], 9.66 µM (active) in experiment [2], 8.4 µM (active) in experiment [3] and 8.41 µM (active) in experiment [4]. Also, the AC50 in experiment [5] is 4.16 µM (active); in [9], 12.7 µM (active). Moreover, the IC50 is > 20 µM (inactive) in [6], 17.5 µM (active) in [7] and 17.3 µM (active) in experiment [8].
Regarding `COC(=O)CN(c1cc(Cl)ccc1OC)S(=O)(=O)c1ccc(C)cc1`, the EC50 in experiment [10] is 3.49 µM (active); in [11], > 29.9 µM (not active).
`CCOC(=O)c1sc(NC(=O)CN2CCCC2)c(C(=O)OCC)c1C`: in experiment [12], the CC50 is > 40 µM (active).
In the case of `Cc1cc(S(=O)(=O)N2CCCCCC2)c(Cl)cc1Cl`, the EC50 in experiment [10] and in [11] was > 29.9 µM (not active) throughout.
For `O=C(Oc1ccc(-c2nnco2)cc1)c1sc2ccccc2c1Cl`, the IC50 in [13] is > 17 µM (not active).
`CN(C)CCCN(C(=O)c1ccco1)c1nc2cc3c(cc2s1)OCO3`: the EC50 is < 0.1 µM (active) in experiment [14], > 60 µM (not active) in [15] and 0.213 µM (active) in experiment [16]. Besides, in experiment [9], the half-maximal activity concentration (AC50) is 25.2 µM (active).
`Cc1cc2nc3n(c2cc1C)CCCN3`: the results for the EC50 in experiment [14], in experiment [15] and in experiment [16] were < 0.1 µM (active), > 60 µM (not active) and 0.121 µM (active), respectively.
With `Cc1cc(C)cc(NC(=O)c2cc(Cl)sc2Cl)c1`, the CC50 in [12] is > 20 µM (active).
In the case of `O=C(Cn1cnc2ccccc2c1=O)Nc1nc2ccccc2s1`, the values for the IC50 in experiment [17] and in [18] were 51.4 µM (not active) and > 111 µM (not active), respectively.
Consider `CCCCCCCCNC(C)C(O)c1ccc(SC(C)C)cc1` (stereo unspecified), for which the 50% effective concentration (EC50) in [1] was > 20 µM (not active); in experiment [2], > 20 µM (not active); in experiment [3], 15.2 µM (active); in experiment [4], 11.3 µM (active). Moreover, the AC50 in experiment [19] was 64.1 µM (active).
On to `COc1ccc(-n2c(SCC(=O)Nc3nccs3)nc3sc4c(c3c2=O)CCN(C)C4)cc1`, for which, in [20], the IC50 is 8.48 µM (active).
Turning to `S=C(CCC(=S)Nc1ccc(Cl)cc1)Nc1ccc(Cl)cc1`, the IC50 in experiment [13] is listed as > 17 µM (not active).
In the case of `Cc1ccccc1NCc1ccc(O)c2ncccc12`, the EC50 in experiment [21] is 11.2 µM (active); in [22], > 120 µM (not active); in experiment [23] it was 10.4 µM (active). For the same molecule, the results for the IC50 in experiment [24] and in experiment [25] were 12.5 µM (active) and 11.5 µM (active), respectively.
As to `COc1ccc(OC)c(NC(=O)C(=O)NNC(=O)c2cccs2)c1`, in experiment [26], the EC50 is 3.5 µM (active).
In the case of `COc1ccc(NC(S)=NN=C(S)Nc2cccc(C(F)(F)F)c2)cc1`, the IC50 is 6.7 µM (active) in experiment [17] and > 111 µM (not active) in experiment [18].
In the case of `O=Cc1cn(-c2ccccc2)nc1-c1cc2c(ccc3ccccc32)oc1=O`, the IC50 in [20] is 19.6 µM (active).
